Test results as given in patent publication US20030134335A1, “Method for reducing the immunogenicity of heterologous proteins by elimination of t-cell epitopes” (priority 1999, published 2003).

Legend:
[1] = tested on: SakSTAR specific T-cell clones (CD3+, CD4+); experiment: Functional T-cell assay: proliferation (BrdU) of SakSTAR-specific T-cell clones with APC and antigen/peptide; type: cell-based, human; conditions: for immunogenic / functional T-cell epitope by T-cell clone specificity: over 100 SakSTAR specific T-cell clones, SakSTAR-derived peptides; for proliferation of region(71-87)-specific T-cell clones: positive if at least three times the background
From the text: For the cloning of SakSTAR-specific T-cell clones, approximately 15×10^6 PBMC from each donor were stimulated with an optimal concentration of SakSTAR for 7-9 days. The visible T-cell clones were harvested under the microscope, and individually re-stimulated in a 96-well flat-bottom plate with autologous PBMC as antigen presenting cells (APC). These wells were supplemented on day 1 with 20U/ml recombinant human interleukin-2 (IL-2) (Boehringer Mannheim, Mannheim, Germany) and allowed to grow for 8-11 days. Re-stimulation was repeated every 8-11 days under the same conditions. After 3 to 6 passages, autologous PBMC were replaced by autologous Epstein Barr Virus (EBV)-immortalized B-cell lines as antigen presenting cells.
To identify immunogenic regions on the SakSTAR molecule, the isolated T-cell clones were tested for their specificity using SakSTAR-derived peptides. In total 25 peptides 17 residues in length, each overlapping 12 residues were synthesized using a fluorenylmethoxy-carbonyl-protected amino acid coupling procedure (Hiemstra et al., 1997). Each individual T-cell clone was tested for its specificity by co-culturing T-cells, Mitomycin C-treated autologous EBV-B-cells and antigen or the appropriate peptide for 4 days. Subsequently, the T-cell clones were pulsed for 24 hours with BrdU, harvested and analyzed for their BrdU content.

PBMC = experiment: Proliferation (stimulation index) of SakSTAR-myc-primed PBMC re-stimulated with antigen/peptides; type: cell-based, human; conditions: for cellular immune response (stimulation index) of SakSTAR-myc primed PBMC: PBMC from 10 region(71-87)-immunoreactive donors, value exceeding 3 positive
From the text: However, the vast majority of humans does also recognize additional immunogenic SakSTAR regions (untouched in these SakSTAR-variants), which would invalidate such an experiment. Therefore, 25 other healthy donors were screened for SakSTAR immunoreactivity. PBMC were thawed, washed four times in 1% human serum albumin, and cultured at 1.8×10^6 cells/ml in RPMI 1640 supplemented with 5%. human serum (Biowitthaker, Walkersville, Md.) and gentamycin with or without SakSTAR-myc for 10 days in a humidified CO2 incubator. The non-adherent cells were harvested and restimulated with no antigen, SakSTAR-myc or different peptides. For antigen presenting cells, irradiated autologous PBMC were T-cell depleted, using CD3-M450 Dynabeads (Dynal, Compiégne, France) according manufacturer procedures (FACS analysis indicated >95% non-T-cells). The plates were incubated at 37° C. under humidified atmosphere containing 5% CO2 for 5 days, and pulsed with BrdU for the last 22 to 24 hours.
Subsequently, the cells were harvested and analyzed for their BrdU content (BrdU ELISA, Boehringer Mannheim, Mannheim, Germany). A stimulation index was calculated, by dividing the OD obtained from the PBMC in response to an antigen/peptide by that of the spontaneous proliferation (no antigen) control. A value exceeding 3 was considered positive, indicating the proliferation of specific T-cells to that particular antigen/peptide.

Sequence | cellular immune response (stimulation index) of SakSTAR-myc primed PBMC (PBMC) | immunogenic / functional T-cell epitope by T-cell clone specificity [1] | other results
TAYKEFRVVELDPSAKI [71-TAYKEFRVVELDPSAKI-87, wild type SakSTAR(71-87) 17-mer peptide] |  |  | donors from which isolated T-cell clones were stimulated by the peptide ([1]; T-cell clones from 10 healthy donors): 9 of 10; SakSTAR positive donors with a cellular immune response to the peptide (PBMC; 20 identified SakSTAR positive donors, stimulation index exceeding 3 positive): 80%
TAYKEFAVVALAPSAKI [triple (R77A, E80A, D82A), multiple mutation(71-87) peptide] | none of the tested donors showed a positive cellular immune response |  | 
AYKEFRVVELD [S1, 11-mer peptide, SakSTAR residues 72-82] |  | functional T-cell epitopes | proliferation of region(71-87)-specific T-cell clones [1]: clones Tc-1 to Tc-6 proliferated
EFRVVELDPSA [S2, 11-mer peptide, SakSTAR residues 75-85] |  | functional T-cell epitopes | proliferation of region(71-87)-specific T-cell clones [1]: Tc-7 to Tc-10 recognize the S2 peptide
TAYKEFAVVALDPSAKI [double (R77A, E80A), multiple mutation(71-87) peptide] | none of the tested donors showed a positive cellular immune response |  | 
TAYQEFSVVSLSPSAKI [quadruple (K74Q, R77S, E80S, D82S), multiple mutation(71-87) peptide] | none of the tested donors showed a positive cellular immune response |  | 
TAYAAFAVVALAPSAKI [quintuple (K74A, E75A, R77A, E80A, D82A), multiple mutation(71-87) peptide] | none of the tested donors showed a positive cellular immune response |  | 
HYVEFPIKPGT [43-HYVEFPIKPGT-53] |  | no T-cell clones were isolated | 
TYYDKNKKKEE [90-TYYDKNKKKEE-100] |  | no T-cell clones were isolated | 
